This note sets out measurements from PMC10656490, “Sequence-based prediction of the intrinsic solubility of peptides containing non-natural amino acids” (Nature Communications, 2023).

Like-named read-outs stand apart in the source and are kept apart here. Where a SMILES comes first, the peptide text is derived from it. [ ]: non-standard residue; d: D form. Cha = N[C@@H](CC1CCCCC1)C(=O)O; Cit = NC(=O)NCCC[C@H](N)C(=O)O; Nle = CCCC[C@H](N)C(=O)O; Aib = CC(C)(N)C(=O)O

A short description of data set [1]: Ammonium sulphate (AMS) precipitation relative solubility assay (18 A variants). It counts as physicochemical. On the procedure:
(§1) Relative solubility was measured using a recently developed PEG precipitation assay. For all PYY variants the standard assay worked well, and no changes had to be implemented (Fig. 2a). […] Moreover, to ensure that the results stemming from the AMS assay are consistent and reliable, we performed the 18 A experiments twice independently on different days. The results confirmed that they are indeed replicable, and we were therefore confident to use them for the validation of our approach (Supplementary Fig. 3). […] Even at final concentrations of 0.33 mg/mL (instead of 1 mg/mL) most variants remained insoluble. We used ultracentrifugation to determine the relative solubilities of the GLP-1 variants (Table 3). To confirm the reliability of this method we replicated the results on a different day with the same stock solutions (Supplementary Fig. 4).
(§2) Aliquots of 1 mg were prepared from the purified and lyophilised stocks. […] Briefly, a precipitant is titrated in increasing concentration to a fixed concentration of protein to induce precipitation of the protein. The samples are incubated for 48 h at 4° after mixing. The samples are centrifuged and the remaining protein concentration is measured in the supernatant using a plate reader. PYY and 18 A variants were dissolved in 10 mM citrate 10 mM phosphate buffer at pH 7 for a final concentration of 3 mg/mL. The assay was run with 50% 6000 PEG for PYY and with 3.8 M AMS for 18 A. To improve throughput, a multichannel robot was employed to measure several peptides at once with the workflow being kept the same as described previously. […] 120 µL of each sample were centrifuged using an OptimaTLX Ultracentrifuge and spinning for 30 min at 500,000 g at 4 °C. The supernatant was removed, and the peptide concentration was measured using a NanoDrop.

A short description of data set [2]: Solubility by ultracentrifugation (GLP-1 variants). The conditions noted are these: for solubility: 10 mM citrate 10 mM phosphate buffer, pH 7, GLP-1 variants, 2 mg/mL in 10 mM citrate 10 mM phosphate pH 7, 30 min 500,000 g 4 °C. It counts as physicochemical. On the procedure: as §1, §2
The mark [3] stands for this setting: 18A variants, precipitation midpoint, second run, Figure S3.
Setting [4] is: source data Supplementary Fig. 4, GLP-1 variants, 2 stands where Table 3 prints S, in mg/mL.

Turning to `CC(=O)N[C@@H](CC(=O)O)C(=O)N[C@@H](Cc1c[nH]c2ccccc12)C(=O)N[C@@H](Cc1ccccc1)C(=O)NC(C)(C)C(=O)N[C@@H](C)C(=O)N[C@@H](Cc1ccccc1)C(=O)N[C@@H](Cc1ccc(O)cc1)C(=O)N[C@@H](CC(=O)O)C(=O)N[C@@H](CCCCN)C(=O)N[C@H](C(=O)N[C@@H](C)C(=O)N[C@@H](CCC(=O)O)C(=O)N[C@@H](CCCCN)C(=O)N[C@@H](CC1CCCCC1)C(=O)N[C@@H](CCCCN)C(=O)N[C@@H](CCC(=O)O)C(=O)N[C@@H](C)C(=O)N[C@@H](Cc1ccccc1)C(N)=O)C(C)C` [Aib, Cha] (Ac-DWF[Aib]AFYDKVAEK[Cha]KEAF-NH2), the PEG1/2 in data set [1] (18A variants, Figure 3b) came out at 1.604. Also, the “Second Run” value in data set [1] (setting [3]) came out at 1.21.

For `CC(=O)N[C@@H](CC(=O)O)C(=O)N[C@@H](Cc1c[nH]c2ccccc12)C(=O)N[C@@H](CC1CCCCC1)C(=O)N[C@@H](CCCCN)C(=O)N[C@@H](C)C(=O)N[C@@H](Cc1ccccc1)C(=O)N[C@@H](Cc1ccc(O)cc1)C(=O)N[C@@H](CC(=O)O)C(=O)N[C@@H](CCCCN)C(=O)N[C@H](C(=O)N[C@@H](CC1CCCCC1)C(=O)N[C@@H](CCC(=O)O)C(=O)N[C@@H](CCCCN)C(=O)N[C@@H](Cc1ccccc1)C(=O)N[C@@H](CCCCN)C(=O)N[C@@H](CCC(=O)O)C(=O)N[C@@H](C)C(=O)N[C@@H](Cc1ccccc1)C(N)=O)C(C)C` [Cha, Cha] (Ac-DW[Cha]KAFYDKV[Cha]EKFKEAF-NH2), the PEG1/2 in data set [1] (18A variants, Figure 3b) was determined as 0. Also, the “Second Run” value in data set [1] (setting [3]) is reported as 0.

Regarding `CCCC[C@H](NC(=O)[C@H](CCC(=O)O)NC(=O)[C@H](CCCCN)NC(=O)[C@H](Cc1ccccc1)NC(=O)[C@H](CCCCN)NC(=O)[C@H](CCC(=O)O)NC(=O)[C@H](C)NC(=O)[C@@H](NC(=O)[C@H](CCCCN)NC(=O)[C@H](CC(=O)O)NC(=O)[C@H](Cc1ccc(O)cc1)NC(=O)[C@H](Cc1ccccc1)NC(=O)[C@H](CC1CCCCC1)NC(=O)[C@H](CCCCN)NC(=O)[C@H](Cc1ccccc1)NC(=O)[C@H](Cc1c[nH]c2ccccc12)NC(=O)[C@H](CC(=O)O)NC(C)=O)C(C)C)C(=O)N[C@@H](Cc1ccccc1)C(N)=O` [Cha, Nle] (Ac-DWFK[Cha]FYDKVAEKFKE[Nle]F-NH2), the PEG1/2 in data set [1] (18A variants, Figure 3b) came out at 0. For the same compound, the “Second Run” value in data set [1] (setting [3]) stood at 0.

For the compound `CCCC[C@H](NC(=O)[C@H](CCC(=O)O)NC(=O)[C@H](C)NC(=O)[C@@H](N)Cc1c[nH]cn1)C(=O)N[C@H](C(=O)N[C@@H](Cc1ccccc1)C(=O)N[C@H](C(=O)N[C@@H](CO)C(=O)N[C@@H](CC(=O)O)C(=O)N[C@H](C(=O)N[C@@H](CO)C(=O)N[C@@H](CO)C(=O)N[C@@H](Cc1ccc(O)cc1)C(=O)N[C@@H](CC(C)C)C(=O)N[C@@H](CCC(=O)O)C(=O)NCC(=O)N[C@@H](CCCNC(N)=O)C(=O)N[C@@H](C)C(=O)N[C@@H](C)C(=O)N[C@@H](CCCCN)C(=O)N[C@@H](CCC(=O)O)C(=O)N[C@@H](Cc1ccccc1)C(=O)N[C@H](C(=O)N[C@@H](C)C(=O)N[C@@H](Cc1c[nH]c2ccccc12)C(=O)N[C@@H](CC(C)C)C(=O)N[C@H](C(=O)N[C@@H](CCCCN)C(=O)NCC(=O)N[C@@H](CCCNC(=N)N)C(N)=O)C(C)C)[C@@H](C)CC)C(C)C)[C@@H](C)O)[C@@H](C)O` [Compound 10] (H-HAE[Nle]TFTSDVSSYLEG[Cit]AAKEFIAWLVKGR-NH2; N-terminus assumed), the solubility in data set [2] (run 1, read-out: Run 1 solubility (peptide concentration in supernatant)) stood at 150 µg/mL; in data set [2] (run 2, read-out: Run 2 solubility (peptide concentration in supernatant)), 120 µg/mL. In data set [2] (GLP1 variants, Figure 3c, in mg/mL), the Ultracentrifugation is given as 0.1367. Moreover, in data set [2] (setting [4]), the “First Run” value is reported as 0.15. In addition, the “Second Run” value in data set [2] (setting [4]) is 0.1234.

With `CC(=O)N[C@@H](CC(=O)O)C(=O)N[C@@H](Cc1c[nH]c2ccccc12)C(=O)N[C@@H](Cc1ccccc1)C(=O)N[C@@H](CCCCN)C(=O)N[C@@H](C)C(=O)N[C@@H](Cc1ccccc1)C(=O)N[C@@H](Cc1ccc(O)cc1)C(=O)N[C@@H](CC(=O)O)C(=O)N[C@@H](CCCCN)C(=O)N[C@H](C(=O)N[C@@H](C)C(=O)N[C@@H](CCC(=O)O)C(=O)N[C@@H](CCCCN)C(=O)N[C@@H](Cc1ccccc1)C(=O)N[C@@H](CCCCN)C(=O)N[C@@H](CCC(=O)O)C(=O)N[C@@H](C)C(=O)N[C@@H](Cc1ccccc1)C(N)=O)C(C)C` [Compound 11, reference compound] (Ac-DWFKAFYDKVAEKFKEAF-NH2), in data set [1], the PEG1/2 was determined as 1.626 and the “Second Run” value is reported as 1.058.

Consider `CCCC[C@H](NC(=O)[C@@H](NC(=O)[C@H](CCCCN)NC(=O)[C@H](CC(=O)O)NC(=O)[C@H](Cc1ccc(O)cc1)NC(=O)[C@H](Cc1ccccc1)NC(=O)[C@H](C)NC(=O)[C@H](CCCCN)NC(=O)[C@H](Cc1ccccc1)NC(=O)[C@H](Cc1c[nH]c2ccccc12)NC(=O)[C@H](CC(=O)O)NC(C)=O)C(C)C)C(=O)N[C@@H](CCC(=O)O)C(=O)N[C@@H](CCCCN)C(=O)N[C@@H](Cc1ccccc1)C(=O)N[C@@H](CCCCN)C(=O)N[C@@H](CCC(=O)O)C(=O)N[C@@H](C)C(=O)N[C@@H](Cc1ccccc1)C(N)=O` [Compound 13] (Ac-DWFKAFYDKV[Nle]EKFKEAF-NH2), for which, in data set [1] (18A variants, Figure 3b), the PEG1/2 came to 1.618. The “Second Run” value in data set [1] (setting [3]) turned out to be 0.923.

As for `CC(=O)NCCCC[C@H](NC(=O)[C@@H](NC(=O)[C@H](CCCCN)NC(=O)[C@H](CC(=O)O)NC(=O)[C@H](Cc1ccc(O)cc1)NC(=O)[C@H](Cc1ccccc1)NC(=O)[C@H](C)NC(=O)[C@H](CCCCN)NC(=O)[C@H](Cc1ccccc1)NC(=O)[C@H](Cc1c[nH]c2ccccc12)NC(=O)[C@H](CC(=O)O)NC(C)=O)C(C)C)C(=O)N[C@@H](CCC(=O)O)C(=O)N[C@@H](CCCCN)C(=O)N[C@@H](Cc1ccccc1)C(=O)N[C@@H](CCCCN)C(=O)N[C@@H](CCC(=O)O)C(=O)N[C@@H](C)C(=O)N[C@@H](Cc1ccccc1)C(N)=O` [Compound 14] (Ac-DWFKAFYDKVK(Ac)EKFKEAF-NH2), the PEG1/2 in data set [1] (18A variants, Figure 3b) turned out to be 1.287. For the same compound, the “Second Run” value in data set [1] (setting [3]) is on record as 0.527.

`CC(=O)N[C@@H](CC(=O)O)C(=O)N[C@@H](Cc1c[nH]c2ccccc12)C(=O)N[C@@H](Cc1ccccc1)C(=O)N[C@@H](CCCCN)C(=O)N[C@@H](C)C(=O)N[C@@H](Cc1ccccc1)C(=O)N[C@@H](Cc1ccc(O)cc1)C(=O)N[C@@H](CC(=O)O)C(=O)N[C@@H](CCCCN)C(=O)N[C@H](C(=O)NC(C)(C)C(=O)N[C@@H](CCC(=O)O)C(=O)N[C@@H](CCCCN)C(=O)N[C@@H](Cc1ccccc1)C(=O)N[C@@H](CCCCN)C(=O)N[C@@H](CCC(=O)O)C(=O)N[C@@H](C)C(=O)N[C@@H](Cc1ccccc1)C(N)=O)C(C)C` [Compound 15] (Ac-DWFKAFYDKV[Aib]EKFKEAF-NH2): the PEG1/2 in data set [1] (18A variants, Figure 3b) turned out to be 1.783. Besides, the “Second Run” value in data set [1] (setting [3]) is given as 1.487.

As to `CC(=O)N[C@@H](CC(=O)O)C(=O)N[C@@H](Cc1c[nH]c2ccccc12)C(=O)N[C@@H](Cc1ccccc1)C(=O)N[C@@H](CCCCN)C(=O)N[C@@H](C)C(=O)N[C@@H](Cc1ccccc1)C(=O)N[C@@H](Cc1ccc(O)cc1)C(=O)N[C@@H](CC(=O)O)C(=O)N[C@@H](CCCCN)C(=O)N[C@H](C(=O)N[C@@H](CCCNC(N)=O)C(=O)N[C@@H](CCC(=O)O)C(=O)N[C@@H](CCCCN)C(=O)N[C@@H](Cc1ccccc1)C(=O)N[C@@H](CCCCN)C(=O)N[C@@H](CCC(=O)O)C(=O)N[C@@H](C)C(=O)N[C@@H](Cc1ccccc1)C(N)=O)C(C)C` [Compound 16] (Ac-DWFKAFYDKV[Cit]EKFKEAF-NH2), the PEG1/2 in data set [1] (18A variants, Figure 3b) stood at 1.901. In data set [1] (setting [3]), the “Second Run” value was found to be 1.251.

For “HAEGTFTS[CHA]VSSYLEGQAAK[NAC]FIAWLVKGR [Compound 9]”, in data set [2], the “First Run” value stood at 0, the “Second Run” value turned out to be 0 and the Ultracentrifugation worked out at 0.
